Test results reported in US6825180B2, “Pyridopyrimidine compounds and their uses” (Cell Therapeutics, Inc., priority 2001, dated 2004).
pIC50: −log10 of the molar value. “And” between values parts separate entries of the source, which are not always exact repeats. Identical values can stand only once. Counter-ions that a name gives are not always drawn.

Tests used:
IL-12 signaling [1] = assay: Modified acute assay; type: cell-based; details: T-cell, 72 h, purified splenic T cells, anti-CD3 or lectin stimulation, Interferon-γ by ELISA
Procedure: The compounds of Examples 3-10 were tested in a modified acute assay which is used to screen for compounds that perturb IL-12 signaling. The assay measures the biological effects of compounds on IL-12 signaling during the differentiation of T1 responses rather than the outcome of differentiation, as measured using a T1 Differentiation Assay. Purified splenic T cells were stimulated either by crosslinking their T cell receptors with immobilized anti-CD3 antibody or by binding with a soluble lectin (e.g. Conconavalin A). The cells were incubated for 72 hours after which time supernatants are collected and relative Interferon-γ amounts determined by ELISA. The Modified Acute Assay measured a directed IL-12 response derived from a population of cells in a variety of activation states and can be thought of as a more stochastic response.

IL-12 signaling [2] = assay: IL-12 dependent in vitro T-helper cell (Th1) differentiation assay; type: cell-based; details: inhibition of IL-12 induced Th1 differentiation as defined by IFN-γ production upon secondary stimulation with anti-CD3 alone, splenic T cells, seven days culture
Procedure: This example illustrates the inventive compounds' ability to suppress Th1 differentiation in vitro by blocking IL-12 signaling. The compounds from Examples 1, 2, 6, and 7 were tested in an IL-12 dependent in vitro T-helper cell differentiation assay as described in LeGross et al., J. Exp. Med., 172:921-929 (1990). Recombinant IL-12 was used to induce Th1 differentiation. Splenic T cells were purified utilizing the antibodies RA3-3A1/6.1 (anti-B220), J11d and MAR18.5 (anti-rat kappa chain) to deplete the B cells by magnetic bead separation, as described in Coon et al, J. Immuno., 163:6567-6574 (1989). Splenic T cells were stimulated at 5×10^5/ml with insoluble anti-CD3 alone (145-2C11, Pharmingen, San Diego, Calif.), or anti-CD3 and 5 U/ml IL-12, with and without each inventive compound. After seven days, equal numbers of viable cells were restimulated for 24 hours with anti-CD3 without the inventive compounds, and the supernatants were collected and assayed for IFN—γ production. IFN-γ and IL-4 levels were measured by ELISA test specific for IFN-γ and IL-4.
Th1 differentiation was induced by culturing anti-CD3 stimulated T cells in the presence of exogenous IL-12. […] It was observed that the presence of the tested compounds during T cell activation inhibited Th1 differentiation, which had been enhanced by the addition of exogenous IL-12. The values in the “IC50 μM” column were determined by measuring the inhibition of IL-12 induced Th1 differentiation as defined by IFN-γ production upon secondary stimulation with anti-CD3 alone. None of the compounds affected the viability or recovery of T cells after one week of culture.

Structure (SMILES) | pIC50 (IL-12 signaling [1]) | pIC50 (IL-12 signaling [2]; T-cell, 168 h) | pIC50 (IL-12 signaling [2]) | pIC50 (IL-12 signaling [2]; Acetic Acid Salt)
Cc1cc(=O)c2c(=O)n(CCCC[C@@H](C)O)c(=O)n(C)c2n1Cc1ccccc1 [Example 5, (R)-8-Benzyl-1,7-dimethyl-3-(5-hydroxyhexyl)pyrido[2,3-d]pyrimidine-2,4,5(1H,3H,8H)-trione] | 5.10 | – | – | –
Cc1cc(C)c2c(=O)n(CCCC[C@@H](C)O)c(=O)n(C)c2n1 [Example 8, (R)-3-(5-Hydroxyhexyl)-1,5,7-trimethylpyrido[2,3-d]pyrimidine-2,4(1H,3H)-dione] | 4.48 | – | – | –
Cc1cc(=O)[nH]c2c1c(=O)n(CCCC[C@@H](C)O)c(=O)n2C [Example 9, (R)-1,5-Dimethyl 3-(5-hydroxyhexyl)pyrido[2,3-d]pyrimidine-2,4,7(1H,3H,8H)-trione] | < 4.40 | – | – | –
Cc1cc(N(C)C)c2c(=O)n(CCCC[C@@H](C)N(C)C)c(=O)n(C)c2n1 [Example 7, (R)-1,7-Dimethyl-5-(N,N-dimethylamino)-3-(5-(N,N-dimethylamino)hexyl)pyrido[2,3-d]pyrimidine-2,4(1H,3H)dione] | 4.59 | < 4.40 | – | –
CNc1cc(C)nc2c1c(=O)n(CCCC[C@@H](C)O)c(=O)n2C [Example 3, (R)-1,7-Dimethyl-3-(5-hydroxyhexyl)-5-(N-methylamino)pyrido[2,3-d]pyrimidine-2,4(1H,3H)-dione] | > 5.00 | – | – | –
Cc1cc(=O)c2c(=O)n(CCCC[C@@H](C)O)c(=O)n(C)c2[nH]1 [Example 1, (R)-1,7-Dimethyl-3-(5-hydroxyhexyl)pyrido[2,3-d]pyrimidine-2,4,5(1H,3H,8H)-trione] | – | 4.72 | 4.62 and 4.55 | –
CO[C@H](C)CCCCn1c(=O)c2c(=O)cc(C)[nH]c2n(C)c1=O [Example 2, (R)-1,7-Dimethyl-3-(5-methoxyhexyl)pyrido[2,3-d]pyrimidine-2,4,5(1H,3H,8H)-trione] | – | 5.15 | – | –
Cc1cc(=O)c2c(=O)n(CCCC[C@@H](C)N(C)C)c(=O)n(C)c2[nH]1 [Example 6, (R)-1,7-Dimethyl-3-(5-(N,N-dimethylamino)hexyl)pyrido[2,3-d]pyrimidine-2,4,5(1H,3H,8H)-trione, Acetic Acid Salt] | 5.05 | 4.85 | – | 4.80
Cc1cc(N(C)C)nc2c1c(=O)n(CCCC[C@@H](C)O)c(=O)n2C [Example 10, (R)-1,5-Dimethyl-7-(N,N-dimethylamino)-3-(5-hydroxyhexyl)-2,4-pyrido[2,3-d]pyrimidine-2,4(1H,3H)-dione] | 5.22 | – | – | –
